Each molecule was assayed on Aβ42 production (assay: Quantification of Aβ peptide in culture of neurons from rat fetus brain (Aβ ELISA)). Settings: Neuron, 72 h; rat primary neuronal culture (cerebral cortex, embryonic day 18 Wistar rats); medium collected three days after addition of compound; Aβx-42 ELISA; read-out: Activity for reducing Aβ42 production IC50.
Assay type: cell-based
Procedure: Quantification of Aβ Peptide in Culture of Neurons from Rat Fetus Brain
(1) Rat Primary Neuronal Culture
Primary neuronal cultures were prepared from the cerebral cortex of embryonic day 18 Wistar rats (Charles River Japan, Yokohama, Japan). Specifically, the embryos were aseptically removed from pregnant rats under ether anesthesia. The brain was isolated from the embryo and immersed in an ice-cold L-15 medium (Invitrogen Corp. Cat #11415-064, Carlsbad, Calif., USA, or SIGMA L1518, for example). The cerebral cortex was collected from the isolated brain under a stereoscopic microscope. The cerebral cortex fragments collected were enzymatically treated in an enzyme solution containing 0.25% trypsin (Invitrogen Corp. Cat #15050-065, Carlsbad, Calif., USA) and 0.01% DNase (Sigma D5025, St. Louis, Mo., USA) at 37° C. for 30 minutes to disperse the cells. Here, the enzymatic reaction was stopped by adding inactivated horse serum to the solution. The enzymatically treated solution was centrifuged at 1,500 rpm for five minutes to remove the supernatant. 5 to 10 ml of a medium was added to the resulting cell mass. Neurobasal medium (Invitrogen Corp. Cat #21103-049, Carlsbad, Calif., USA) supplemented with 2% B27 supplement (Invitrogen Corp. Cat #17504-044, Carlsbad, Calif., USA), 25 μM 2-mercaptoethanol (2-ME, WAKO Cat #139-06861, Osaka, Japan), 0.5 mM L-glutamine (Invitrogen Corp. Cat #25030-081, Carlsbad, Calif., USA), and Antibiotics-Antimycotics (Invitrogen Corp. Cat #15240-062, Carlsbad, Calif., USA) was used as the medium (Neurobasal/B27/2-ME). However, the above Neurobasal medium not supplemented with 2-ME (Neurobasal/B27) was used for the assay. The cells were redispersed by mild pipetting of the cell mass to which the medium was added. The cell dispersion was filtered through a 40-μm nylon mesh (Cell Strainer, Cat #35-2340, Becton Dickinson Labware, Franklin Lakes, N.J., USA) to remove the remaining cell mass, and thus a neuronal cell suspension was obtained. The neuronal cell suspension was diluted with the medium and then plated in a volume of 100 μl/well at an initial cell density of 5×10^5 cells/cm^2 in a 96-well polystyrene culture plate pre-coated with poly-L or D-lysine (Falcon Cat #35-3075, Becton Dickinson Labware, Franklin Lakes, N.J., USA coated with poly-L-lysine using the method shown below, or BIOCOAT™ cell environments Poly-D-lysine cell ware 96-well plate, Cat #35-6461, Becton Dickinson Labware, Franklin Lakes, N.J., USA). Poly-L-lysine coating was carried out as follows. 100 μg/ml of a poly-L-lysine (SIGMA P2636, St. Louis, Mo., USA) solution was aseptically prepared with a 0.15 M borate buffer (pH 8.5). 100 μl/well of the solution was added to the 96-well polystyrene culture plate and incubated at room temperature for one or more hours or at 4° C. overnight or longer. The coated 96-well polystyrene culture plate was washed with sterile water four or more times, and then dried or rinsed with, for example, sterile PBS or medium, and used for cell plating. The plated cells were cultured in the culture plate at 37° C. in 5% […]-95% air for one day. Then, the total amount of the medium was replaced with a fresh Neurobasal™/B27/2-ME medium, and then the cells were cultured for further three days.
The drug was added to the culture plate on Day 4 of culture as follows. The total amount of the medium was removed from the wells, and 180 μl/well of Neurobasal medium not containing 2-ME and containing 2% B-27 (Neurobasal/B27) was added thereto. A solution of the test compound in dimethyl sulfoxide (hereinafter abbreviated as DMSO) was diluted with Neurobasal/B27 so that the initial concentration was at 10-fold of the final concentration. 20 μl/well of the dilution was added to and sufficiently mixed with the medium. The final DMSO concentration was 1% or less. Only DMSO was added to the control group.
The cells were cultured for three days after addition of the compound, and the total amount of the medium was collected. […]

Going from `COc1cc(/C=C2\OC(C)(C)CN([C@H](c3cc(F)c(F)c(F)c3)[C@@H](C)O)C2=O)ccc1-n1cnc(C)c1` [Example 27, (Z)-4-[(1R,2R)-2-hydroxy-1-(3,4,5-trifluorophenyl)propyl]-2-[1-[3-methoxy-4-(4-methyl-1H-imidazol-1-yl)phenyl]methylidene]-6,6-dimethylmorpholin-3-one] to `Cc1cn(-c2ccc(/C=C3\OC(C)(C)CN([C@H](c4cc(F)c(F)c(F)c4)[C@@H](C)O)C3=O)cc2F)cn1` [Example 77, (Z)-2-[1-[3-fluoro-4-(4-methyl-1H-imidazol-1-yl)phenyl]methylidene]-4-[(1R,2R)-2-hydroxy-1-(3,4,5-trifluorophenyl)propyl]-6,6-dimethylmorpholin-3-one], the IC50 rises from 5 nM to 141 nM (28-fold).

Going from `COc1cc(/C=C2\OC(C)(C)CN([C@H](c3ccc(F)c(F)c3)[C@@H](C)O)C2=O)ccc1-n1cnc(C)c1` [Example 35, (Z)-4-[(1R,2R)-1-(3,4-difluorophenyl)-2-hydroxypropyl]-2-[1-[3-methoxy-4-(methylimidazol-1-yl)phenyl]methylidene]-6,6-dimethylmorpholin-3-one] to `COc1cc(/C=C2\OC(C)(C)CN([C@H](c3ccc(F)cc3)[C@@H](C)O)C2=O)ccc1-n1cnc(C)c1` [Example 33, (Z)-4-[(1R,2R)-1-(4-fluorophenyl)-2-hydroxypropyl]-2-[1-[3-methoxy-4-(4-methyl-1H-imidazol-1-yl)phenyl]methylidene]-6,6-dimethylmorpholin-3-one], the IC50 rises from 23 nM to 63 nM (2.7-fold).

Compared with `COc1cc(/C=C2\O[C@@H](C)CN(C(C)(C)c3ccc(F)cc3)C2=O)ccc1-n1cnc(C)c1` [Example 38, (Z)-(6S)-4-[1-(4-fluorophenyl)-1-methylethyl]-2-[1-[3-methoxy-4-(4-methyl-1H-imidazol-1-yl)phenyl]methylidene]-6-methylmorpholin-3-one], `COc1cc(/C=C2\O[C@H](C)CN([C@@H](C)c3ccc(F)cc3)C2=O)ccc1-n1cnc(C)c1` [Example 8, (Z)-(R)-4-[(S)-1-(4-fluorophenyl)ethyl]-2-[1-[3-methoxy-4-(4-methyl-1H-imidazol-1-yl)phenyl]methylidene]-6-methylmorpholin-3-one] is 2.2-fold higher in IC50: 52 nM for the first, 113 nM for the second. The first is the more potent here.

`COc1cc(/C=C2\O[C@@H](C)CN([C@@H](C)c3ccnc(F)c3F)C2=O)ccc1-n1cnc(C)c1` [Example 24, (Z)-(S)-4-[(S)-1-(2,3-difluoropyridin-4-yl)ethyl]-2-[1-[3-methoxy-4-(4-methyl-1H-imidazol-1-yl)phenyl]methylidene]-6-methylmorpholin-3-one] and `COc1cc(/C=C2\O[C@@H](C)CN([C@@H](C)c3ccc(F)nc3F)C2=O)ccc1-n1cnc(C)c1` [Example 22, (Z)-(S)-4-[(S)-1-(2,6-difluoropyridin-3-yl)ethyl]-2-[1-[3-methoxy-4-(4-methyl-1H-imidazol-1-yl)phenyl]methylidene]-6-methylmorpholin-3-one] are within 1.5-fold of each other in IC50: 36 nM for the first, 30 nM for the second.

`COc1cc(/C=C2\OC(C)(C)CN([C@@H](C)c3ccc(F)nc3F)C2=O)ccc1-n1cnc(C)c1` [Example 55, (Z)-4-[(S)-1-(2,6-difluoropyridin-3-yl)ethyl]-2-[1-[3-methoxy-4-(4-methyl-1H-imidazol-1-yl)phenyl]methylidene]-6,6-dimethylmorpholin-3-one] and `COc1cc(/C=C2\O[C@@H](C)CN([C@H](C)c3ccc(F)nc3F)C2=O)ccc1-n1cnc(C)c1` [Example 23, (Z)-(S)-4-[(R)-1-(2,6-difluoropyridin-3-yl)ethyl]-2-[1-[3-methoxy-4-(4-methyl-1H-imidazol-1-yl)phenyl]methylidene]-6-methylmorpholin-3-one] are within 1.5-fold of each other in IC50: 111 nM for the first, 130 nM for the second.

Going from `COc1cc(/C=C2\OC(C)(C)CN([C@@H](C)c3ccc(Cl)cn3)C2=O)ccc1-n1cnc(C)c1` [Example 60, (Z)-4-[(S)-1-(5-chloropyridin-2-yl)ethyl]-2-[1-[3-methoxy-4-(4-methyl-1H-imidazol-1-yl)phenyl]methylidene]-6,6-dimethylmorpholin-3-one] to `COc1cc(/C=C2\O[C@@H](C)CN([C@H](C)c3ccc(Cl)cn3)C2=O)ccc1-n1cnc(C)c1` [Example 21, (Z)-(S)-4-[(R)-1-(5-chloropyridin-2-yl)ethyl]-2-[1-[3-methoxy-4-(4-methyl-1H-imidazol-1-yl)phenyl]methylidene]-6-methylmorpholin-3-one], the IC50 rises from 96 nM to 195 nM (2-fold). The first is the more potent here.

Going from `Cc1cn(-c2ccc(/C=C3\O[C@@H](C)CN([C@H](c4cc(F)c(F)c(F)c4)[C@@H](C)O)C3=O)cc2F)cn1` [Example 74, (Z)-(S)-2-[1-[3-fluoro-4-(4-methyl-1H-imidazol-1-yl)phenyl]methylidene]-4-[(1R,2R)-2-hydroxy-1-(3,4,5-trifluorophenyl)propyl]-6-methylmorpholin-3-one] to `COc1cc(/C=C2\O[C@@H](C)CN([C@H](c3cc(F)c(F)c(F)c3)[C@@H](C)O)C2=O)ccc1-n1cnc(C)c1` [Example 26, (Z)-(S)-4-[(1R,2R)-2-hydroxy-1-(3,4,5-trifluorophenyl)propyl]-2-[1-[3-methoxy-4-(4-methyl-1H-imidazol-1-yl)phenyl]methylidene]-6-methylmorpholin-3-one], the IC50 falls from 140 nM to 6 nM (23-fold). The second is the more potent here.

Going from `COc1cc(/C=C2\O[C@@H](C)CN(Cc3ccc(F)c(F)c3F)C2=O)ccc1-n1cnc(C)c1` [Example 5, (Z)-(S)-2-[1-[3-methoxy-4-(4-methyl-1H-imidazol-1-yl)phenyl]methylidene]-6-methyl-4-(2,3,4-trifluorobenzyl)morpholin-3-one] to `COc1cc(/C=C2\O[C@H](C)CN([C@H](c3cc(F)c(F)c(F)c3)[C@@H](C)O)C2=O)ccc1-n1cnc(C)c1` [Example 29, (Z)-(6R)-4-[(1R,2R)-2-hydroxy-1-(3,4,5-trifluorophenyl)propyl]-2-[1-[3-methoxy-4-(4-methyl-1H-imidazol-1-yl)phenyl]methylidene]-6-methylmorpholin-3-one], the IC50 falls from 125 nM to 23 nM (5.4-fold).

Compared with `COc1cc(/C=C2\OC(C)(C)CN([C@@H](C)c3ccc(F)cc3)C2=O)ccc1-n1cnc(C)c1` [Example 7, (Z)-4-[(S)-1-(4-fluorophenyl)ethyl]-2-[1-[3-methoxy-4-(4-methyl-1H-imidazol-1-yl)phenyl]methylidene]-6,6-dimethylmorpholin-3-one], `COc1cc(/C=C2\O[C@@H](C)CN([C@@H](C)c3ccc(Cl)nc3)C2=O)ccc1-n1cnc(C)c1` [Example 18, (Z)-(S)-4-[(S)-1-(6-chloropyridin-3-yl)ethyl]-2-[1-[3-methoxy-4-(4-methyl-1H-imidazol-1-yl)phenyl]methylidene]-6-methylmorpholin-3-one] is 2.4-fold higher in IC50: 76 nM for the first, 183 nM for the second.

`COc1cc(/C=C2\OCCN(Cc3cc(F)c(F)c(F)c3)C2=O)ccc1-n1cnc(C)c1` [Example 1, (Z)-2-[1-[3-methoxy-4-(4-methyl-1H-imidazol-1-yl)phenyl]methylidene]-4-(3,4,5-trifluorobenzyl)morpholin-3-one] and `COc1cc(/C=C2\OC[C@H]3COC[C@@H](c4cc(F)c(F)c(F)c4)N3C2=O)ccc1-n1cnc(C)c1` [Example 108, (6R,9aR)-3-{1-[3-methoxy-4-(4-methyl-1H-imidazol-1-yl)phenyl]-(Z)-methylidene}-6-(3,4,5-trifluorophenyl)tetrahydro[1,4]oxazino[3,4-c][1,4]oxazin-4-one] are within 1.5-fold of each other in IC50: 77 nM for the first, 60 nM for the second.

Same assay, conditions: rat primary neuronal culture (cerebral cortex, embryonic day 18 Wistar rats); medium collected three days after addition of compound; Aβx-42 ELISA; read-out: Activity for reducing Aβ42 production IC50

In the case of `COc1cc(/C=C2\OC[C@H]3CCC[C@@H](c4ccc(F)cc4)N3C2=O)ccc1-n1cnc(C)c1` [Example 16], the IC50 is reported as 201 nM.

— patent publication US7618960B2, “Morpholine type cinnamide compound” (Eisai R&D Management Co., Ltd., priority 2005, dated 2009)
